Reference: US9216999B2, “Substituted pyrrolo[2,3-h][1,6]naphthyridines and compositions thereof as JAK inhibitors” (priority 2011, dated 2015)
Where two headings read alike, the source gives them in different places.

Key:
Format in all cases: biochemical
Tyk2 = Tyk2 (Homo sapiens (Human), UniProt P29597); experiment: Enzyme assay (Assay Example^a 1), Tyk2; details: ATP 100 μM
JAK2 = JAK2 (Homo sapiens (Human), UniProt O60674); experiment: Enzyme assay (Assay Example^a 1), JAK2
JAK3 = JAK3 (Homo sapiens (Human), UniProt P52333); experiment: Enzyme assay (Assay Example^a 1), JAK3
JAK1 = JAK1 (Homo sapiens (Human), UniProt P23458); experiment: Enzyme assay (Assay Example^a 1), JAK1; details: ATP 100 μM

Chain of JAK3 (P52333 whole entry): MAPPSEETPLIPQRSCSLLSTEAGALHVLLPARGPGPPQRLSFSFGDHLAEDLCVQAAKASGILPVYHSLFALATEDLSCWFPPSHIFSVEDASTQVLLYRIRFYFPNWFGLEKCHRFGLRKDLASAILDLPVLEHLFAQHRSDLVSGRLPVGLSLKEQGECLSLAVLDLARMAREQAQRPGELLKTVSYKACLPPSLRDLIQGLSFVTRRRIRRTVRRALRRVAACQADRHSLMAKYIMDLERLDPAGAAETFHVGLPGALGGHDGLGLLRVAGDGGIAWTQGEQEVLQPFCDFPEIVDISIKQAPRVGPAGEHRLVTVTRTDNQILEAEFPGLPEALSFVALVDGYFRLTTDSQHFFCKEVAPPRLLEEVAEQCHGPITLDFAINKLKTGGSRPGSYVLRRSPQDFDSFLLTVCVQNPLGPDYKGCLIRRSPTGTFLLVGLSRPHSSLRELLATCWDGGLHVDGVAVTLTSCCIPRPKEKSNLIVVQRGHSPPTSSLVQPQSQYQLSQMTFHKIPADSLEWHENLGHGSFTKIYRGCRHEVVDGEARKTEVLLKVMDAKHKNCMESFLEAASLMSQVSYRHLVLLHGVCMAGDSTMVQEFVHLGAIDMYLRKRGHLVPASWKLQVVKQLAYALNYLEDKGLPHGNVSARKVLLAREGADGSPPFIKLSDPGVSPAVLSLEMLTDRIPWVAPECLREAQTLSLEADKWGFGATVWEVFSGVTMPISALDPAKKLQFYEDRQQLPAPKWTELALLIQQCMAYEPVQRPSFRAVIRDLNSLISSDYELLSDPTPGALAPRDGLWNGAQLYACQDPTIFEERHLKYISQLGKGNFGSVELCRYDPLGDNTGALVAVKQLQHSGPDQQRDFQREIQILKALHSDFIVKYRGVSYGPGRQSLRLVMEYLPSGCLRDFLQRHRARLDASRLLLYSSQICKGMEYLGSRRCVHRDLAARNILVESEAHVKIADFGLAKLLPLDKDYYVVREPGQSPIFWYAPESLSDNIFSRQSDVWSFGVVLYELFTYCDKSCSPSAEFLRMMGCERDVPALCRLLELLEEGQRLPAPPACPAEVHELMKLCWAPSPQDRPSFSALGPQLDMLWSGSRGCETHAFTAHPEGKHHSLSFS
Chain of Tyk2 (P29597 whole entry): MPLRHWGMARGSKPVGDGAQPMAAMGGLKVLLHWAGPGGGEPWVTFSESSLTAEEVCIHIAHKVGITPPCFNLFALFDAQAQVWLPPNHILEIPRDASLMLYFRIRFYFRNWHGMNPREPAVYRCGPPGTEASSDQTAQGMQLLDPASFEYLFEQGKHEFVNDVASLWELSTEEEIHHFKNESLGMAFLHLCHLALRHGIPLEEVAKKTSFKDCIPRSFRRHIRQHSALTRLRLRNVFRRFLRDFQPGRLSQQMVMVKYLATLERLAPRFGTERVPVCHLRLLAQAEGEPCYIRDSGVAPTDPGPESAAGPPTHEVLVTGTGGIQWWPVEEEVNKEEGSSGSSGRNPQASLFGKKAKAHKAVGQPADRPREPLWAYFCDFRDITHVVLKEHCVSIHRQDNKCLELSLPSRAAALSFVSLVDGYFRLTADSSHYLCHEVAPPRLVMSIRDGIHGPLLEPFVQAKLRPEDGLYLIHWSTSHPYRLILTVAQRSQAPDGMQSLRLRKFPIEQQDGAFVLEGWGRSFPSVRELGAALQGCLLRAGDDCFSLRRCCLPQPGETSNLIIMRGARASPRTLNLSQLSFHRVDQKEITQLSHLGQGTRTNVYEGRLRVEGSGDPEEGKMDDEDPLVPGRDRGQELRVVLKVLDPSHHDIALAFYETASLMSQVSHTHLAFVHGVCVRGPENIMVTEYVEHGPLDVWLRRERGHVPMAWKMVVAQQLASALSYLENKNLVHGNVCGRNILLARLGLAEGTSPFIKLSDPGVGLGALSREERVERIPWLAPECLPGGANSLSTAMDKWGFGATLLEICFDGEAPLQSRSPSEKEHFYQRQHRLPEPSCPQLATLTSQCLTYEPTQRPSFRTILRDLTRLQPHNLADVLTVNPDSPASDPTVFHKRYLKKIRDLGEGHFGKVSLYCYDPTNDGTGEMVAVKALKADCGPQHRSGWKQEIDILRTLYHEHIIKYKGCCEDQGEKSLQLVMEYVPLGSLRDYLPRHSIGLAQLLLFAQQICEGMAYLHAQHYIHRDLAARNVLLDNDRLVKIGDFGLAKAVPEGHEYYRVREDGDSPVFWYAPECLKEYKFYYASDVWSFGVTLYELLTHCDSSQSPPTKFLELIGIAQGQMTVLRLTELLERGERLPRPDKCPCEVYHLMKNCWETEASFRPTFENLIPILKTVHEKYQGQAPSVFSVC

IC50 (Tyk2; Table^a 154) [µM] | IC50 (JAK2; ATP 100 μM, Table^a 154) [µM] | IC50 (JAK3; ATP 100 μM, Table^a 154) [µM] | IC50 (JAK1; Table^a 154) [µM] | Structure (SMILES) | IC50 (Tyk2) [µM] | IC50 (JAK2; ATP 100 μM) [µM] | IC50 (JAK3; ATP 100 μM) [µM] | IC50 (JAK1) [µM] | IC50 (JAK2) [µM] | IC50 (JAK3) [µM]
– | – | – | – | c1cc2c(ncn3nnc([C@H]4CC[C@H](CNCC5CC5)CC4)c23)[nH]1 [compound 285, 1-[trans-4-(7H-pyrrolo[3,2-e][1,2,3]triazolo[1,5-c]pyrimidin-1-yl)cyclohexyl]-N-(cyclopropylmethyl)methanamine] | 0.068 | 0.12 | 0.61 | 0.0091 | – | –
0.34 | 0.02 | 0.1 | 0.0044 | Fc1ccc(CN2CCC(c3nnn4cnc5[nH]ccc5c34)CC2)c(Cl)c1 [compound 165, 1-[1-(2-chloro-4-fluorobenzyl)piperidin-4-yl]-7H-pyrrolo[3,2-e][1,2,3]triazolo[1,5-c]pyrimidine] | – | – | – | – | – | –
– | – | – | – | N#Cc1ccc(CN2CCC(c3nnn4cnc5[nH]ccc5c34)CC2)cc1C#N [compound 242, 4-{[4-(7H-pyrrolo[3,2-e][1,2,3]triazolo[1,5-c]pyrimidin-1-yl)piperidin-1-yl]methyl}phthalonitrile] | > 1 | 0.052 | 0.96 | 0.0065 | – | –
0.33 | 0.74 | > 1 | 0.032 | c1ccc(CN[C@H]2CC[C@@H](c3nnn4cnc5[nH]ccc5c34)CC2)cc1 [194a, cis-N-benzyl-4-(7H-pyrrolo[3,2-e][1,2,3]triazolo[1,5-c]pyrimidin-1-yl)cyclohexanamine] | – | – | – | – | – | –
– | – | – | – | c1cnc2cc(CN3CCC(c4nnn5cnc6[nH]ccc6c45)CC3)ccc2n1 [compound 218, 1-[1-(quinoxalin-6-ylmethyl)piperidin-4-yl]-7H-pyrrolo[3,2-e][1,2,3]triazolo[1,5-c]pyrimidine] | > 1 | 0.14 | > 1 | 0.028 | – | –
0.13 | 0.051 | 0.32 | 0.0081 | C[C@@H](O)CNC[C@H]1CC[C@H](c2nnn3cnc4[nH]ccc4c23)CC1 [compound 185, (R)-1-({[trans-4-(7H-pyrrolo[3,2-e][1,2,3]triazolo[1,5-c]pyrimidin-1-yl)cyclohexyl]methyl}amino)propan-2-ol] | – | – | – | – | – | –
– | – | – | – | O=C(NCC(F)(F)F)C1CN(C[C@H]2CC[C@H](c3nnn4cnc5[nH]ccc5c34)CC2)C1 [compound 426, 1-{[trans-4-(7H-Pyrrolo[3,2-e][1,2,3]triazolo[1,5-c]pyrimidin-1-yl)cyclohexyl]methyl}-N-(2,2,2-trifluoroethyl)azetidine-3-carboxamide] | 0.58 | 0.062 | 0.87 | 0.011 | – | –
– | – | – | – | FC(F)(F)CN(CC1CC1)C[C@H]1CC[C@H](c2nnn3cnc4[nH]ccc4c23)CC1 [compound 415, N-{[trans-4-(7H-pyrrolo[3,2-e][1,2,3]triazolo[1,5-c]pyrimidin-1-yl)cyclohexyl]methyl}-N-(cyclopropylmethyl)-2,2,2-trifluoroethanamine] | > 1 | 0.095 | > 1 | 0.03 | – | –
– | – | – | – | CC(C)(C)OC(=O)N1CCC(CNC[C@H]2CC[C@H](c3nnn4cnc5[nH]ccc5c34)CC2)CC1 [compound 335, tert-butyl 4-[({[trans-4-(7H-pyrrolo[3,2-e][1,2,3]triazolo[1,5-c]pyrimidin-1-yl)cyclohexyl]methyl}amino)methyl]piperidine-1-carboxylate] | 0.71 | 0.29 | > 1 | 0.029 | – | –
– | – | – | – | Fc1ccc([C@@H]2C[C@H]2CN[C@H]2CC[C@H](c3nnn4cnc5[nH]ccc5c34)CC2)cc1 (relative stereo) [389b, trans-N-{[trans-2-(4-fluorophenyl)cyclopropyl]methyl}-4-(7H-pyrrolo[3,2-e][1,2,3]triazolo[1,5-c]pyrimidin-1-yl)cyclohexanamine] | 0.67 | 0.14 | > 1 | 0.0079 | – | –
– | – | – | – | N#Cc1ccc(CCNC[C@H]2CC[C@H](c3nnn4cnc5[nH]ccc5c34)CC2)cc1 [compound 282, 4-[2-({[trans-4-(7H-pyrrolo[3,2-e][1,2,3]triazolo[1,5-c]pyrimidin-1-yl)cyclohexyl]methyl}amino)ethyl]benzonitrile] | 0.08 | 0.07 | 0.39 | 0.0052 | – | –
– | – | – | – | O=C([C@H]1CC[C@H](c2nnn3cnc4[nH]ccc4c23)CC1)N1CC[C@H](O)C1 [compound 358, [trans-4-(7H-pyrrolo[3,2-e][1,2,3]triazolo[1,5-c]pyrimidin-1-yl)cyclohexyl][(S)-3-hydroxypyrrolidin-1-yl]methanone] | > 1 | 0.91 | > 1 | 0.63 | – | –
0.0028 | 0.031 | 0.2 | 0.0029 | Clc1ccc(CNC[C@H]2CC[C@H](c3nnn4cnc5[nH]ccc5c34)CC2)cc1 [compound 177, 1-[trans-4-(7H-pyrrolo[3,2-e][1,2,3]triazolo[1,5-c]pyrimidin-1-yl)cyclohexyl]-N-(4-chlorobenzyl)methanamine] | – | – | – | – | – | –
0.0055 | 0.041 | 0.28 | 0.0053 | c1ccc(CNC[C@H]2CC[C@H](c3nnn4cnc5[nH]ccc5c34)CC2)cc1 [compound 193, 1-[trans-4-(7H-pyrrolo[3,2-e][1,2,3]triazolo[1,5-c]pyrimidin-1-yl)cyclohexyl]-N-benzylmethanamine] | – | – | – | – | – | –
– | – | – | – | OC1(c2ccc(Cl)c(C(F)(F)F)c2)CCN(C[C@H]2CC[C@H](c3nnn4cnc5[nH]ccc5c34)CC2)CC1 [compound 309, 1-{[trans-4-(7H-pyrrolo[3,2-e][1,2,3]triazolo[1,5-c]pyrimidin-1-yl)cyclohexyl]methyl}-4-[4-chloro-3-(trifluoromethyl)phenyl]piperidin-4-ol] | 0.31 | – | > 1 | 0.0076 | 0.097 | –
– | – | – | – | N#CC[C@H]1CC[C@H](c2nnn3cnc4[nH]ccc4c23)CC1 [435b, 2-[trans-4-(7H-Pyrrolo[3,2-e][1,2,3]triazolo[1,5-c]pyrimidin-1-yl)cyclohexyl]acetonitrile] | 0.0029 | 0.0025 | 0.032 | 0.00011 | – | –
– | – | – | – | O=c1[nH]c(C2CCCCC2)c2c3cc[nH]c3ncn12 [compound 9] | 0.078 | 0.046 | – | 0.03 | – | 0.43
– | – | – | – | FC(F)(F)C1(NC[C@H]2CC[C@H](c3nnn4cnc5[nH]ccc5c34)CC2)CC1 [compound 292, N-{[trans-4-(7H-pyrrolo[3,2-e][1,2,3]triazolo[1,5-c]pyrimidin-1-yl)cyclohexyl]methyl}-1-(trifluoromethyl)cyclopropanamine] | 0.27 | 0.017 | 0.39 | 0.0027 | – | –
– | – | – | – | N#CCN(C[C@H]1CC[C@H](c2nnn3cnc4[nH]ccc4c23)CC1)C(=O)CC(F)(F)F [compound 412, N-{[trans-4-(7H-Pyrrolo[3,2-e][1,2,3]triazolo[1,5-c]pyrimidin-1-yl)cyclohexyl]methyl}-N-(cyanomethyl)-3,3,3-trifluoropropanamide] | 0.32 | 0.0056 | 0.054 | 0.0026 | – | –
– | – | – | – | N#Cc1ccc(CN2CCC(c3nnn4cnc5[nH]ccc5c34)CC2)cc1F [compound 222, 4-{[4-(7H-pyrrolo[3,2-e][1,2,3]triazolo[1,5-c]pyrimidin-1-yl)piperidin-1-yl]methyl}-2-fluorobenzonitrile] | 0.77 | 0.033 | 0.32 | 0.0035 | – | –
– | – | – | – | FC1(F)CN(C[C@H]2CC[C@H](c3nnn4cnc5[nH]ccc5c34)CC2)C1 [compound 339, 1-{trans-4-[(3,3-difluoroazetidin-1-yl)methyl]cyclohexyl}-7H-pyrrolo[3,2-e][1,2,3]triazolo[1,5-c]pyrimidine] | 0.86 | 0.052 | 0.26 | 0.018 | – | –
– | – | – | – | N#CC1(c2ccccc2)CCN(C[C@H]2CC[C@H](c3nnn4cnc5[nH]ccc5c34)CC2)CC1 [compound 310, 1-{[trans-4-(7H-pyrrolo[3,2-e][1,2,3]triazolo[1,5-c]pyrimidin-1-yl)cyclohexyl]methyl}-4-phenylpiperidine-4-carbonitrile] | > 1 | 0.38 | > 1 | 0.071 | – | –
– | – | – | – | N#Cc1ccc(CCNC(=O)[C@H]2CC[C@H](c3nnn4cnc5[nH]ccc5c34)CC2)cc1 [compound 362, trans-N-(4-cyanophenethyl)-4-(7H-pyrrolo[3,2-e][1,2,3]triazolo[1,5-c]pyrimidin-1-yl)cyclohexanecarboxamide] | > 1 | 0.057 | > 1 | 0.0074 | – | –

Structure (SMILES) | IC50 (Tyk2; Table^a 154) [µM] | IC50 (JAK2; ATP 100 μM, Table^a 154) [µM] | IC50 (JAK3; ATP 100 μM, Table^a 154) [µM] | IC50 (JAK1; Table^a 154) [µM] | IC50 (Tyk2) [µM] | IC50 (JAK2; ATP 100 μM) [µM] | IC50 (JAK3; ATP 100 μM) [µM] | IC50 (JAK1) [µM] | IC50 (JAK2) [µM] | IC50 (JAK3) [µM]
O=C([C@H]1CC[C@H](c2nnn3cnc4[nH]ccc4c23)CC1)N1CC[C@H](F)C1 [compound 209, [trans-4-(7H-pyrrolo[3,2-e][1,2,3]triazolo[1,5-c]pyrimidin-1-yl)cyclohexyl][(S)-3-fluoropyrrolidin-1-yl]methanone] | > 1 | 0.42 | > 1 | 0.061 | – | – | – | – | – | –
O=S(=O)(c1ccc(NC[C@H]2CC[C@H](c3nnn4cnc5[nH]ccc5c34)CC2)cc1)C(F)(F)F [compound 173, N-{[trans-4-(7H-pyrrolo[3,2-e][1,2,3]triazolo[1,5-c]pyrimidin-1-yl)cyclohexyl]methyl}-4-[(trifluoromethyl)sulfonyl]aniline] | 0.46 | 0.26 | > 1 | 0.034 | – | – | – | – | – | –
FC(F)(F)C1CCC(N2CCC(c3nnn4cnc5[nH]ccc5c34)CC2)CC1 (single isomer, unassigned) [56a] | > 1 | > 1 | > 1 | 0.5 | – | – | – | – | – | –
O=C(Nc1ccc(F)cc1)[C@H]1CC[C@H](c2nnn3cnc4[nH]ccc4c23)CC1 [compound 206, trans-N-(4-Fluorophenyl)-4-(7H-pyrrolo[3,2-e][1,2,3]triazolo[1,5-c]pyrimidin-1-yl)cyclohexanecarboxamide] | > 1 | > 1 | > 1 | 0.27 | – | – | – | – | – | –
